Assays:
Assay type in all cases: in vivo
[1] = test system: giant foxtail (Setaria faberii); assay: Test A pre-/postemergence plant response
Summary of the method: (§1)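 Formulated test chemicals (non-phytotoxic solvent, surfactant) were sprayed onto soil right after planting and simultaneously onto young plants at one to two leaves, 2 to 10 cm tall. Plants stayed in the greenhouse about ten days; injury was then visually scored against untreated controls, from 0 (no effect) to 100 (complete control).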

[2] = test system: corn (Zea mays); assay: Test A pre-/postemergence plant response
Summary of the method: as §1

[3] = test system: pigweed (Amaranthus retroflexus); assay: Test A pre-/postemergence plant response
Summary of the method: as §1

[4] = test system: barnyardgrass (Echinochloa crus-galli); assay: Test A pre-/postemergence plant response
Summary of the method: as §1

[5] = test system: galium (catchweed bedstraw, Galium aparine); assay: Test B pre-/postemergence plant response; conditions: for Galium plant response rating: 0 to 100 scale
Summary of the method: (§2)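 Compound in solvent + surfactant applied pre-em (loam/sand) or post-em (plants 2–18 cm, peat medium); greenhouse hold 13–15 days; visual 0–100 control score.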

[6] = test system: sunflower (common oilseed sunflower, Helianthus annuus); assay: Test B pre-/postemergence plant response; conditions: Preemergence; for Sunflower plant response rating: 250 g ai/ha, 0 to 100 scale
Summary of the method: as §2

[7] = test system: nightshade (eastern black nightshade, Solanum ptycanthum); assay: Test B pre-/postemergence plant response; conditions: Preemergence; for Nightshade plant response rating: 250 g ai/ha, 0 to 100 scale
Summary of the method: as §2

[8] = test system: umbrella sedge (Cyperus difformis); assay: Test B flooded paddy test; conditions: for Plant response rating, Flood, Sedge, Umbrella: 250 g ai/ha, flooded paddy test, visual rating on 0 to 100 scale (0 no effect, 100 complete control) after 13 to 15 days; for Plant response rating, Sedge, Umbrella: Flood (flooded paddy test), 13 to 15 days; for Sedge, Umbrella plant response rating: Flood, 31 g ai/ha, scale 0 to 100 (0 no effect, 100 complete control)
Summary of the method: (§3)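 2-leaf seedlings; pots flooded 3 cm over soil at treatment; cpd dosed into floodwater, depth kept constant. Greenhouse 13–15 d. Visual rating vs untreated controls, 0 = no effect, 100 = complete control.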

[9] = test system: barnyardgrass (Echinochloa crus-galli); assay: Test B flooded paddy test; conditions: for Plant response rating, Flood, Barnyardgrass: 250 g ai/ha, flooded paddy test, visual rating on 0 to 100 scale (0 no effect, 100 complete control) after 13 to 15 days; for Plant response rating, Barnyardgrass: Flood (flooded paddy test), 13 to 15 days; for Barnyardgrass plant response rating: Flood, 31 g ai/ha, scale 0 to 100 (0 no effect, 100 complete control)
Summary of the method: as §3

[10] = test system: rice (Oryza sativa); assay: Test B flooded paddy test; conditions: for Plant response rating, Flood, Rice: 250 g ai/ha, flooded paddy test, visual rating on 0 to 100 scale (0 no effect, 100 complete control) after 13 to 15 days; for Plant response rating, Rice: Flood (flooded paddy test), 13 to 15 days; for Rice plant response rating: Flood, 31 g ai/ha, scale 0 to 100 (0 no effect, 100 complete control)
Summary of the method: as §3

[11] = test system: ducksalad (Heteranthera limosa); assay: Test B flooded paddy test; conditions: for Plant response rating, Flood, Ducksalad: 250 g ai/ha, flooded paddy test, visual rating on 0 to 100 scale (0 no effect, 100 complete control) after 13 to 15 days; for Plant response rating, Ducksalad: Flood (flooded paddy test), 13 to 15 days; for Ducksalad plant response rating: Flood, 31 g ai/ha, scale 0 to 100 (0 no effect, 100 complete control)
Summary of the method: as §3

[12] = Postemergence, 125 g ai/ha, 0 to 100 scale where 0 is no effect and 100 is complete control
[13] = Postemergence, 500 g ai/ha, visual injury, 0 to 100 scale (0 no effect, 100 complete control), approx. ten days
[14] = Preemergence, 125 g ai/ha, 0 to 100 scale, 0 = no effect, 100 = complete control
[15] = Preemergence, 500 g ai/ha, 0 to 100 scale, 0 = no effect, 100 = complete control
[16] = Preemergence, 31 g ai/ha, scale 0 to 100 (0 no effect, 100 complete control)
[17] = Preemergence, 62 g ai/ha, scale 0 to 100, 0 no effect, 100 complete control
[18] = Preemergence, 125 g ai/ha, scale 0 to 100, 0 no effect, 100 complete control
[19] = 31 g ai/ha, scale 0 to 100 (0 no effect, 100 complete control)
[20] = 62 g ai/ha, scale 0 to 100, 0 no effect, 100 complete control
[21] = 125 g ai/ha, scale 0 to 100, 0 no effect, 100 complete control
[22] = 62 g ai/ha, scale of 0 to 100 where 0 is no effect and 100 is complete control
[23] = 125 g ai/ha, scale 0 to 100, 0 is no effect, 100 is complete control
[24] = Postemergence, 1000 g ai/ha, 0 to 100 scale, 0 = no effect, 100 = complete control, approx. ten days
[25] = Preemergence, 1000 g ai/ha, visual injury, 0 to 100 scale (0 no effect, 100 complete control), approx. ten days
[26] = Postemergence, 125 g ai/ha, visual injury, 0 to 100 scale (0 no effect, 100 complete control), approx. ten days
[27] = Preemergence, 125 g ai/ha, 0 to 100 scale where 0 is no effect and 100 is complete control, approximately ten days

CCCCn1c(C2CC2)ncc(C(=O)C2=C(O)CCCC2=O)c1=O [Compound 193]
Plant response rating, Foxtail, Giant [1, 12]: 90
Foxtail, Giant plant response rating [1, 13]: 100
Plant response rating, Foxtail, Giant [1, 14]: 90
Plant response rating, Foxtail, Giant [1, 15]: 90
Plant response rating, Corn [2, 12]: 10
Corn plant response rating [2, 13]: 40
Plant response rating, Corn [2, 14]: 0
Plant response rating, Corn [2, 15]: 0
Plant response rating, Pigweed [3, 12]: 100
Pigweed plant response rating [3, 13]: 100
Plant response rating, Pigweed [3, 14]: 100
Plant response rating, Pigweed [3, 15]: 100
Plant response rating, Barnyardgrass [4, 12]: 90
Barnyardgrass plant response rating [4, 13]: 100
Plant response rating, Barnyardgrass [4, 14]: 80
Plant response rating, Barnyardgrass [4, 15]: 90
Plant response rating, Galium ([5]; Postemergence, 31 g ai/ha, 0 to 100 scale (0 no effect, 100 complete control)): 75
Plant response rating, Galium ([5]; Postemergence, 125 g ai/ha, scale 0 to 100 (0 no effect, 100 complete control)): 90
Plant response rating, Galium ([5]; Postemergence, 250 g ai/ha, scale 0 to 100 (0 no effect, 100 complete control), 13 to 15 days): 90
Plant response rating, Galium [5, 16]: 75
Plant response rating, Galium [5, 17]: 100
Plant response rating, Galium [5, 18]: 100
Galium plant response rating ([5]; Preemergence, 250 g ai/ha): 100
Plant response rating, Sunflower [6, 19]: 70
Plant response rating, Sunflower [6, 20]: 80
Plant response rating, Sunflower [6, 21]: 80
Sunflower plant response rating [6]: 95
Plant response rating, Nightshade [7, 19]: 100
Plant response rating, Nightshade [7, 20]: 100
Plant response rating, Nightshade [7, 21]: 100
Nightshade plant response rating [7]: 100
Plant response rating, Flood, Sedge, Umbrella [8]: 90
Plant response rating, Sedge, Umbrella [8, 22]: 30
Plant response rating, Sedge, Umbrella [8, 23]: 70
Sedge, Umbrella plant response rating [8]: 0
Plant response rating, Flood, Barnyardgrass [9]: 50
Plant response rating, Barnyardgrass [9, 22]: 20
Plant response rating, Barnyardgrass [9, 23]: 45
Barnyardgrass plant response rating [9]: 0
Plant response rating, Flood, Rice [10]: 65
Plant response rating, Rice [10, 22]: 15
Plant response rating, Rice [10, 23]: 30
Rice plant response rating [10]: 0
Plant response rating, Flood, Ducksalad [11]: 100
Plant response rating, Ducksalad [11, 22]: 50
Plant response rating, Ducksalad [11, 23]: 85
Ducksalad plant response rating [11]: 40

CCCc1ncc(C(=O)C2=C(O)CCCC2=O)c(=O)n1-c1ccccc1 [Compound 217]
Plant response rating, Foxtail, Giant [1, 24]: 80
Plant response rating, Foxtail, Giant [1, 25]: 80
Plant response rating, Corn [2, 24]: 40
Plant response rating, Corn [2, 25]: 0
Plant response rating, Pigweed [3, 24]: 100
Plant response rating, Pigweed [3, 25]: 100
Plant response rating, Barnyardgrass [4, 24]: 90
Plant response rating, Barnyardgrass [4, 25]: 80
Plant response rating, Galium [5, 16]: 0
Plant response rating, Galium [5, 17]: 10
Plant response rating, Galium [5, 18]: 70
Galium plant response rating ([5]; Preemergence, 250 g ai/ha): 90
Plant response rating, Sunflower [6, 19]: 70
Plant response rating, Sunflower [6, 20]: 75
Plant response rating, Sunflower [6, 21]: 85
Sunflower plant response rating [6]: 85
Plant response rating, Nightshade [7, 19]: 95
Plant response rating, Nightshade [7, 20]: 100
Plant response rating, Nightshade [7, 21]: 100
Nightshade plant response rating [7]: 100
Plant response rating, Flood, Sedge, Umbrella [8]: 40
Plant response rating, Sedge, Umbrella [8, 22]: 40
Plant response rating, Flood, Barnyardgrass [9]: 0
Plant response rating, Barnyardgrass [9, 22]: 0
Plant response rating, Flood, Rice [10]: 20
Plant response rating, Rice [10, 22]: 0
Plant response rating, Flood, Ducksalad [11]: 40
Plant response rating, Ducksalad [11, 22]: 0

CCc1cccc(-n2c(-c3ccccc3)ncc(C(=O)C3=C(O)CCCC3=O)c2=O)c1 [Compound 220]
Plant response rating, Foxtail, Giant [1, 12]: 20
Foxtail, Giant plant response rating [1, 13]: 60
Plant response rating, Foxtail, Giant [1, 14]: 0
Plant response rating, Foxtail, Giant [1, 15]: 40
Plant response rating, Corn [2, 12]: 0
Corn plant response rating [2, 13]: 30
Plant response rating, Corn [2, 14]: 0
Plant response rating, Corn [2, 15]: 10
Plant response rating, Pigweed [3, 12]: 100
Pigweed plant response rating [3, 13]: 100
Plant response rating, Pigweed [3, 14]: 80
Plant response rating, Pigweed [3, 15]: 100
Plant response rating, Barnyardgrass [4, 12]: 90
Barnyardgrass plant response rating [4, 13]: 90
Plant response rating, Barnyardgrass [4, 14]: 10
Plant response rating, Barnyardgrass [4, 15]: 90
Plant response rating, Galium [5, 16]: 0
Plant response rating, Galium [5, 17]: 50
Plant response rating, Galium [5, 18]: 90
Galium plant response rating ([5]; Preemergence, 250 g ai/ha): 100
Plant response rating, Sunflower [6, 19]: 0
Plant response rating, Sunflower [6, 20]: 45
Plant response rating, Sunflower [6, 21]: 70
Sunflower plant response rating [6]: 90
Plant response rating, Nightshade [7, 19]: 65
Plant response rating, Nightshade [7, 20]: 90
Plant response rating, Nightshade [7, 21]: 98
Nightshade plant response rating [7]: 100
Plant response rating, Flood, Sedge, Umbrella [8]: 85
Plant response rating, Sedge, Umbrella [8, 22]: 0
Plant response rating, Sedge, Umbrella [8, 23]: 20
Sedge, Umbrella plant response rating [8]: 0
Plant response rating, Flood, Barnyardgrass [9]: 40
Plant response rating, Barnyardgrass [9, 22]: 0
Plant response rating, Barnyardgrass [9, 23]: 30
Barnyardgrass plant response rating [9]: 0
Plant response rating, Flood, Rice [10]: 70
Plant response rating, Rice [10, 22]: 15
Plant response rating, Rice [10, 23]: 50
Rice plant response rating [10]: 0
Plant response rating, Flood, Ducksalad [11]: 100
Plant response rating, Ducksalad [11, 22]: 40
Plant response rating, Ducksalad [11, 23]: 85
Ducksalad plant response rating [11]: 30

COCCCn1c(-c2cc(F)cc(F)c2)ncc(C(=O)C2=C(O)C3CCC(C3)C2=O)c1=O (stereo not shown) [Compound 244]
Plant response rating, Foxtail, Giant [1, 26]: 90
Foxtail, Giant plant response rating [1, 13]: 90
Plant response rating, Foxtail, Giant [1, 27]: 70
Plant response rating, Foxtail, Giant [1, 15]: 100
Plant response rating, Corn [2, 12]: 40
Corn plant response rating [2, 13]: 80
Plant response rating, Corn [2, 27]: 20
Plant response rating, Corn [2, 15]: 40
Plant response rating, Pigweed [3, 26]: 100
Pigweed plant response rating [3, 13]: 100
Plant response rating, Pigweed [3, 27]: 100
Plant response rating, Pigweed [3, 15]: 100
Plant response rating, Barnyardgrass [4, 12]: 90
Barnyardgrass plant response rating [4, 13]: 100
Plant response rating, Barnyardgrass [4, 27]: 30
Plant response rating, Barnyardgrass [4, 15]: 100
Plant response rating, Galium [5, 16]: 55
Plant response rating, Galium [5, 17]: 65
Plant response rating, Galium [5, 18]: 98
Galium plant response rating ([5]; Preemergence, 250 g ai/ha): 98
Plant response rating, Sunflower [6, 19]: 80
Plant response rating, Sunflower [6, 20]: 80
Plant response rating, Sunflower [6, 21]: 85
Sunflower plant response rating [6]: 100
Plant response rating, Nightshade [7, 19]: 98
Plant response rating, Nightshade [7, 20]: 100
Plant response rating, Nightshade [7, 21]: 100
Nightshade plant response rating [7]: 100
Plant response rating, Flood, Sedge, Umbrella [8]: 100
Plant response rating, Sedge, Umbrella [8, 22]: 0
Plant response rating, Sedge, Umbrella [8, 23]: 100
Sedge, Umbrella plant response rating [8]: 0
Plant response rating, Flood, Barnyardgrass [9]: 75
Plant response rating, Barnyardgrass [9, 22]: 20
Plant response rating, Barnyardgrass [9, 23]: 40
Barnyardgrass plant response rating [9]: 0
Plant response rating, Flood, Rice [10]: 85
Plant response rating, Rice [10, 22]: 0
Plant response rating, Rice [10, 23]: 60
Rice plant response rating [10]: 0
Plant response rating, Flood, Ducksalad [11]: 100
Plant response rating, Ducksalad [11, 22]: 80
Plant response rating, Ducksalad [11, 23]: 100
Ducksalad plant response rating [11]: 35

Source: patent publication US8952024B2, “Herbicidal pyrimidone derivatives” (E I du Pont de Nemours and Company, priority 2009, dated 2015)
